Results on six molecules are retold here after article PMC6524416, “Nanofibrous Scaffolds Support a 3D in vitro Permeability Model of the Human Intestinal Epithelium” (Frontiers in Pharmacology, 2019).

Where two headings read alike, the source gives them in different places.

The nature of data set [1]: Bidirectional permeability across ex vivo porcine intestinal segments. Type of data set: in vitro ADME, pig. The settings on record: pig; for recovery: pH 7.4, porcine intestinal segments; for Papp A→B / Papp B→A: pH 7.4, all porcine segments (duodenum, jejunum, ileum); for Papp A→B: A to B, read-out: Papp (A to B), range over porcine segments; for Papp B→A: B to A, read-out: Papp (B to A), range over porcine segments. As to the method: (§1) In accordance with the NC3R framework on the reduction and refinement of animals in research; samples were only obtained from healthy adult pig cadavers being used for the purposes of other research projects. The work was conducted according to United Kingdom Home Office guidelines (Animal Scientific Procedures Act […]) and following local AWERB approval (ref 000057). Regional sections from the duodenum (first 25 cm from the stomach), jejunum (150 cm from the stomach) and ileum (first 50 cm back from the ileocecal valve) were resected from pig cadavers (Supplementary Figure S2). Using tweezers the serosa and muscularis propria (muscle layers) were carefully peeled away leaving the mucosa. Sections were washed in PBS, cut to fit the Transwell® inserts (Corning Life Sciences) and transferred in 6-well plates. All tissue was kept on the ice and used within a 24 h time period, post-collection.
(§2) Transport studies were conducted using standard, widely accepted protocols as previously described ([Volpe, 2008]). Transport markers were prepared in transport buffer (HBSS, 25 mM HEPES, pH 7.4). Dimethyl sulfoxide (DMSO) was used to aid solubilisation of poorly soluble drugs at a maximum final concentration of 0.1% (v/v) used in all transport experiments. TEER was measured before and after each experiment to ensure barrier integrity during the experiments and as a control measure of experimental validity. Inserts were transferred to fresh plates containing transport buffer (apical/basolateral volumes were 0.4/1.2 mL and 0.5/6 mL for Transwell® and Snapwell® inserts, respectively). Donor solutions were added to the relevant compartments and the inserts were then incubated at 37°C with shaking at 150 rpm and sampled at intervals of 30 min or 1 h for 1–2 h. Apparent permeability coefficients (Papp) were calculated according to Eq. 2:
(§3) Where dQ/dt is the flux of the compound being investigated (μM s-1), A is the exposed surface area of the insert/scaffold (cm^2) and C0 is the concentration in the apical compartment at t = 0 (μM).
(§4) Compound recovery following permeability assessment were calculated according the following Eq. 3:
(§5) (3) Recovery (%)=[CR(final)×VR(final))×100/(CD(initial)×VD(initial)]
(§6) Where CD and CR are the donor and receiver compartment concentrations, VD and VR are the donor and receiver compartment volumes at t = 0 (initial) or the end of the experiment (final).
(§7) All HPLC was performed using a Kinetix XB-C18 5 μm, 100 Å pore size, 150 mm × 4.56 mm column (with a guard column) on an Agilent 1100 HPLC system. […] Samples were analyzed using gradient runs with Milli-Q dH2O, 0.5% TFA (eluent A) and acetonitrile, 0.5% TFA (eluent B).

The subject of data set [2] is Caco-2 cultures on nanofibrous scaffolds. Description: Bidirectional permeability across Caco-2 cultures on collagen-coated PET nanofibrous scaffolds. Type of data set: in vitro ADME, human. As to the method:
(§8) Polyethylene terephthalate flakes (food grade; were procured from recycled plastic bottles and processed in-house) were dissolved in a 1:1 solution of dichloromethane and trifluoroacetic acid (overnight with stirring) and the polymer solution transferred into a syringe fitted with a blunt needle (18 gauge spinneret) attached to a syringe pump (Harvard Apparatus, United Kingdom). Electrospinning was conducted at a flow rate of 0.5 mL/hr at 14 kV voltage (Glassman High Voltage Inc., Series EL, Glassman Europe Ltd., United Kingdom; Supplementary Figure S1). The fibers were collected on a grounded static plate or rotating collector (a tip-collector distance of 15 cm). The scaffolds were removed with the aid of 70% (v/v) IMS and allowed to air dry at room temperature (RT).
(§9) The nanofibrous scaffolds were surface coated with type I bovine collagen (Sigma-Aldrich). For type I bovine collagen coating, 150 μL of collagen solution (stock and working concentrations 3.1 mg/mL and 31 μg/mL, respectively) was gently pipetted ensuring adequate coverage of the entire scaffold. Samples were incubated at RT under aseptic conditions for 1–2 h. Any remaining collagen solution was aspirated and the scaffolds washed with PBS before cell seeding. Control scaffolds included PET nanofibers with no surface treatment.
(§10) Caco-2 (used within 20 passages throughout the study) was obtained from the Clinical Pathology Laboratory, Queens Medical Centre, Nottingham and are available from ATCC. They were cultured in DMEM (Gibco) supplemented with 10% (v/v) foetal calf serum (FCS), 2 mM L-Glutamine solution, 1% (v/v) antibiotic/antimycotic solution (Gibco; final concentrations of […] streptomycin sulfate and 25 μgmL^-1 amphotericin B) at 37°C, 5% CO2 in 95% relative humidity (RH). Cells were cultured to around 80% confluence before harvesting cells by passaging with Trypsin/EDTA (Sigma Aldrich). Cell culture media was replaced every 2 days. For the initial evaluation of the scaffold compatibility, Collagen type I and untreated nanofibrous scaffolds were mounted in 24-well Cell Crown^TM inserts (Scaffdex). The mounted inserts were then placed in 12-well culture plates and seeded with 50,000 cells in 200 μL per insert. An additional 1 mL culture media was added to the well of the plate which ensured the insert were adequately surrounded and bathed in culture media. Following 24 h of culture at 37°C, 5% CO2, the PrestoBlue viability assay was carried out according to manufacturer’s instructions. In brief, a working solution of 10% (v/v) was prepared from the stock PrestoBlue solution in HBSS and sterile filtered using a 0.2 μm pore filter. Samples were washed three times with pre-warmed PBS and the working solution of PrestoBlue solution applied to the upper chamber of the inserts. Following a 30 min incubation period at 37°C, 5% CO2 with shaking at 150 rpm, 100 μL aliquots were taken from each sample and dispensed in triplicate into a black 96-well plate. The fluorescence of the samples was determined using a plate reader (Tecan Infinite 200, Tecan, United Kingdom) at 530/590 nm (excitation/emission wavelengths). Subsequent viability assays were conducted on day 3 and day 6 of culture to provide an initial assessment of the benefit of the surface treatments on cell adhesion and proliferation. To evaluate barrier formation, Snapwell® hanging inserts (6-well; Corning Life Sciences) were employed as unlike the CellCrown^TM inserts, the Snapwell® hanging inserts provided discrete apical and basolateral chambers in a 6-well plate formate appropriate for assessing barrier formation. The existing polycarbonate membrane on the securing clip of the Snapwell® insert were removed with a scalpel and the nanofiber scaffold affixed securely to the hanging insert by means of the securing clip (Supplementary Figure S1).

Experiment in data set [3]: as above
The settings on record: human, Caco-2 on nanofiber scaffolds, pH 7.4, mean (±SD). In kind it is in vitro ADME, human. As to the method:
as §8, §9, §10

Data set [4] has as its system porcine intestinal tissue. The settings on record: uncorrected Papp; ref Westerhout et al. (2014); cited from earlier work.
A short description of data set [5]: Bidirectional permeability across Caco-2 monolayers on Transwell inserts. Type of data set: in vitro ADME, human. The settings on record: human, Caco-2 on Transwell; for Papp A→B: apical to basolateral; for Papp A→B / Papp B→A: pH 7.4, mean (±SD); for Papp B→A: basolateral to apical. As to the method: as §10, with “S1). Cells were seeded using the same cell density (178,000 cells/cm^2) as had been previously optimized for Caco-2 Transwell® cultures ([Hubatsch et al., 2007]). A cell suspension containing 200,000 cells in 500 μL were seeded onto the upper chamber of the Snapwell® inserts and cultured for 15–21 days at 37°C, 5% CO2 in air prior for TEER evaluation and for permeability tests.” for “S1).”
as §2, with “2: […]” for “2:”
(Passage across Caco-2 layers is used to estimate intestinal permeability.)

In data set [6] the test system is porcine intestinal segments. Description: Bidirectional permeability across ex vivo porcine intestinal segments. In kind it is in vitro ADME, pig. Here is the method:
as §1, §2, §3, §4, §5, §6, §7

The test system of a further data set is human jejunal. The note with it: ref Sjöberg et al. (2013), Rozehnal et al. (2012), cited from earlier work.
In data set [7] the test system is Caco-2 monolayers on Transwell®. The experiment in a line: Bidirectional permeability across Caco-2 monolayers on Transwell inserts. Type of data set: in vitro ADME, human. The note with it: Caco-2 on Transwell, pH 7.4, mean (±SD). As to the method: as §10, with “S1). Cells were seeded using the same cell density (178,000 cells/cm^2) as had been previously optimized for Caco-2 Transwell® cultures ([Hubatsch et al., 2007]). A cell suspension containing 200,000 cells in 500 μL were seeded onto the upper chamber of the Snapwell® inserts and cultured for 15–21 days at 37°C, 5% CO2 in air prior for TEER evaluation and for permeability tests.” for “S1).”
as §2, with “2: […]” for “2:”

The subject of the next data set is Caco-2 monolayers. The arrangement: method as in Artursson et al., 1993, 2001. The settings on record: ref Artursson et al., 1993, 2001; cited from earlier work.

As to `CC(C)NCC(O)COc1ccc(CC(N)=O)cc1` (stereo not drawn) [ATN, Atenolol], the results for the recovery in data set [1] (read-out: average recovery) and in data set [1] (read-out: recovery (range)) were 80% and 70 to 95%, respectively.
By Papp A→B is commonly meant how fast a substance crosses the layer from the apical side. What is called Papp B→A is the apparent permeability from the basolateral to the apical side of a cell layer. In general, Papp refers to the rate of passage across a membrane or cell layer, normalised by area and donor concentration. Take `CC(C)NCC(O)COc1cccc2ccccc12` (stereo not drawn) [PRN, Propranolol]: the recovery in [1] (read-out: average recovery) was 58%; in data set [1] (read-out: recovery (range)), 35 to 75%. In addition, the apparent permeability from apical to basolateral (Papp A→B) in data set [1] is 7.76 to 9.6 ×10⁻⁶ cm/s; in [3] (apical to basolateral) it was 86.3 ×10⁻⁶ cm/s; in data set [5] it was 30.7 ×10⁻⁶ cm/s. Further, the results for the Papp B→A in [1], in data set [3] (basolateral to apical) and in [5] were 1.85 to 5.5 ×10⁻⁶ cm/s, 75.1 ×10⁻⁶ cm/s and 32 ×10⁻⁶ cm/s, respectively. The “increase in permeability over Transwell cultures” value in data set [2] (nanofiber based culture vs Transwell Caco-2) is “more than a two-fold increase”. The Papp in data set [4] was 4.2e-07 cm/s.
Usually efflux ratio stands for a quotient of directional permeabilities that is used to spot active efflux. As to `COC(=O)c1ccccc1-c1c2ccc(=N)cc-2oc2cc(N)ccc12` [Rho-123, rhodamine 123], the active efflux entry in data set [6] (porcine tissue segments) and in data set [2] (3D nanofiber based cultures) was “not detectable” throughout. Also, in data set [1] (read-out: recovery (range)), the recovery lay within 37 to 54%. Moreover, the Papp A→B in data set [1] was 5.6 to 7.6 ×10⁻⁶ cm/s; in [5] it was 0.82 ×10⁻⁶ cm/s. Further, the Papp B→A was 1.8 to 3.6 ×10⁻⁶ cm/s in [1] and 3.8 ×10⁻⁶ cm/s in data set [5]. Further, the efflux ratio at 10 µM in [5] (pH 7.4, B to A / A to B) was determined as 4.6.
Consider `OC[C@@H](O)[C@@H](O)[C@H](O)[C@H](O)CO` [mannitol], for which the “human jejunal Papp” value in the data set on human jejunal (second listed value) is listed as 5.56 ± 2.21 × 10^-6 cm s^-1.
In the case of lucifer yellow [LY], the “Papp (A to B)” value is given as 4.66 (±1.19) × 10^-6 cm s^-1 in data set [6] (porcine duodenal section); 5.58 (±3.93) × 10^-6 cm s^-1 in data set [6] (porcine ileal section); 5.71 (±1.50) × 10^-6 cm s^-1 in data set [6] (porcine jejunal section); 7.14 (±0.4.53) × 10^-6 cm s^-1 in data set [2] (Caco-2 on nanofiber scaffolds, apical to basolateral, pH 7.4, mean (±SD)); 0.30 (±0.13) × 10^-6 cm s^-1 in data set [7] (apical to basolateral). The “Papp (B to A)” value is listed as 2.01 (±0.85) × 10^-6 cm s^-1 in data set [6] (porcine duodenal section); 3.80 (±3.46) × 10^-6 cm s^-1 in [6] (porcine ileal section); 4.31 (±2.58) × 10^-6 cm s^-1 in [6] (porcine jejunal section); 8.51 (±6.61) × 10^-6 cm s^-1 in data set [2] (Caco-2 on nanofiber scaffolds, basolateral to apical, pH 7.4, mean (±SD)); 0.66 (±0.23) × 10^-6 cm s^-1 in [7] (basolateral to apical). The “human jejunal Papp” value in the data set on human jejunal (first listed value) is given as 4.02 ± 2.20 × 10^-6 cm s^-1.
On to polyethylene glycols, for which the “fold lower permeability in Caco-2 monolayers compared to human in vivo” value in the data set on Caco-2 monolayers is reported as around 100 fold.
